Source: patent US20260297042A1, “BIARYLAMIDE DERIVATIVES AND THEIR USE AS PKMYT1 INHIBITORS” (CANCER RESEARCH TECHNOLOGY LIMITED, priority 2023, published 2026)

Tests used:
Human PKMYT1 = biological target: T1, Human PKMYT1 (Homo sapiens, UniProt Q99640); assay: PKMYT1 biochemical ADP-Glo enzymatic assay; conditions: ADP-Glo
T1 construct: Human PKMYT1 75-362 was cloned as a TEV cleavable 6xHis fusion; 6xHis (TEV cleavable) (cleaved yes); made in house; host or cells: bacterial cells
T1 sequence (Q99640 75-362): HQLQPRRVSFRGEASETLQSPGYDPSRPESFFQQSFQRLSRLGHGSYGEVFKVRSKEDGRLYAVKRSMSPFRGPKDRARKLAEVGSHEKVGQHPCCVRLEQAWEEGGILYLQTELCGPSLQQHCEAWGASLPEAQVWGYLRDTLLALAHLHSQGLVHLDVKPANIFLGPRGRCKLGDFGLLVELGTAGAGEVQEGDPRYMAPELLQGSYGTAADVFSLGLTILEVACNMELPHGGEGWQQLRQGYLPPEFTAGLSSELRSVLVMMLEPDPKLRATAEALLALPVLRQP
Summary of the method: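 Measures inhibition of PKMYT1 autonomous ATP hydrolysis: bacterially expressed human enzyme (75-362, tag cleaved) at 15 nM with 500 µM ATP for 60 min at 26 °C, then ADP-Glo Max detection. IC50s accepted only when replicates agreed within 3-fold and curve r2 exceeded 0.9.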

WEE1 = biological target: T2, WEE1 (Homo sapiens, UniProt P30291); assay: Selectivity versus WEE1 assay (ADP-Glo enzymatic assay); type: biochemical; conditions: for IC50: ADP-Glo; for PKMYT1 vs. WEE1 selectivity: fold difference in selectivity for PKMYT1 over WEE1
T2 construct: purchased Thermo Fisher PR7373A
Summary of the method: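 Same format as the PKMYT1 assay: WEE1 at 15 nM final with 30 µM ATP, 60 min at 26° C, ADP-Glo luminescence detection, IC50 by dose-response fitting.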

[1] = 15 nM PKMYT1 kinase domain, 500 µM ATP, 60 minutes at 26° C., banded
[2] = 15 nM WEE1, 60 minutes at 26° C., banded
[3] = banded, ">N" = at least in this band but could be higher
[4] = PKMYT1 kinase domain 15 nM, banded values

T2 sequence (P30291 whole entry): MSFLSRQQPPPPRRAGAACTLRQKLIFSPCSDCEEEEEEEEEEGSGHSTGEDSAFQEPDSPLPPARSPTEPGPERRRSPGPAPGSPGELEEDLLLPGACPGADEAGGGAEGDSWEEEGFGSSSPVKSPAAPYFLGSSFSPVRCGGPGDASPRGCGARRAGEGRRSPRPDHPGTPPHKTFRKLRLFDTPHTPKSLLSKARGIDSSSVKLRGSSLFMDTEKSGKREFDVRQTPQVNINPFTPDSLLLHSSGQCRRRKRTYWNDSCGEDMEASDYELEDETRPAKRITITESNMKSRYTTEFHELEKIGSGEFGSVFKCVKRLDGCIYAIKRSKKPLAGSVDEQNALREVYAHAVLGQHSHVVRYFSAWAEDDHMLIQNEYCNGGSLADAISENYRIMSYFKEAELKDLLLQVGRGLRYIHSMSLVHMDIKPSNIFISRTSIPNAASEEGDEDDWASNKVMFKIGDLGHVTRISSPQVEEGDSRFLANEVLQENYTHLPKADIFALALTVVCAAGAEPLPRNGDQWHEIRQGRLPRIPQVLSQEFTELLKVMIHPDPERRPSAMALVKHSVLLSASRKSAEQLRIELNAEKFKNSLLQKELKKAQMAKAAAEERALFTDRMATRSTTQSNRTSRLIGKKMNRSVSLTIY

IC50 (Human PKMYT1; [1]) [nM]	IC50 (WEE1; [2]) [nM]	PKMYT1 vs. WEE1 selectivity (WEE1; [3])	IC50 (Human PKMYT1; [4]) [nM]	IC50 (WEE1; WEE1 15 nM, banded values) [nM]	PKMYT1 vs. WEE1 selectivity (WEE1; banded)	SMILES
< 50	> 11000	Y (1000-5000 fold)				Cc1ccc(O)c(C)c1NC(=O)c1cnc(Nc2ccn(CC(=O)NCCCO)n2)s1 [BAA-159, N-(3-hydroxy-2,6-dimethyl-phenyl)-2-[[1-[2-(3-hydroxypropylamino)-2-oxo-ethyl]pyrazol-3-yl]amino]thiazole-5-carboxamide]
			< 50	1000 to 11000	Y (1000-5000 fold)	CCN(CCS(C)(=O)=O)C(=O)Cn1cc(C)c(Nc2ncc(C(=O)Nc3c(C)ccc(O)c3C)s2)n1 [BAA-555, 2-((1-(2-(ethyl(2-(methylsulfonyl)ethyl)amino)-2-oxoethyl)-4-methyl-1H-pyrazol-3-yl)amino)-N-(3-hydroxy-2,6-dimethylphenyl)thiazole-5-carboxamide]
< 50	> 11000	Y (1000-5000 fold)				Cc1ccc(O)c(C)c1NC(=O)c1cnc(Nc2ccn(CC(=O)N3CCC3)n2)s1 [BAA-175, 2-[[1-[2-(azetidin-1-yl)-2-oxo-ethyl]pyrazol-3-yl]amino]-N-(3-hydroxy-2,6-dimethyl-phenyl)thiazole-5-carboxamide]
50 to 1000	> 11000	X (100-<1000 fold)				Cc1ccc(O)c(C)c1NC(=O)c1cnc(Nc2ccn(CC(F)(F)F)n2)s1 [BAA-019, N-(3-hydroxy-2,6-dimethyl-phenyl)-2-[[1-(2,2,2-trifluoroethyl)pyrazol-3-yl]amino]thiazole-5-carboxamide]
			< 50	1000 to 11000	W (10-<100 fold)	Cc1ccc(O)c(C)c1NC(=O)c1cnc(Nc2cc(C)n(CCC#N)n2)s1 [BAA-518, 2-((1-(2-cyanoethyl)-5-methyl-1H-pyrazol-3-yl)amino)-N-(3-hydroxy-2,6-dimethylphenyl)thiazole-5-carboxamide]
50 to 1000	> 11000	X (100-<1000 fold)				Cc1ccc(O)c(C)c1NC(=O)c1cnc(Nc2ccc3cc(F)ccc3n2)s1 [BAA-288, 2-((6-fluoroquinolin-2-yl)amino)-N-(3-hydroxy-2,6-dimethylphenyl)thiazole-5-carboxamide]
< 50	> 11000	Y (1000-5000 fold)				Cc1ccc(O)c(C)c1NC(=O)c1cnc(Nc2ccn(CC(=O)N3CCC(C)(O)CC3)n2)s1 [BAA-169, N-(3-hydroxy-2,6-dimethyl-phenyl)-2-[[1-[2-(4-hydroxy-4-methyl-1-piperidyl)-2-oxo-ethyl]pyrazol-3-yl]amino]thiazole-5-carboxamide]
< 50	> 11000	Y (1000-5000 fold)				Cc1ccc(O)c(C)c1NC(=O)c1cnc(Nc2ccn(CC(=O)NC3CCCCC3)n2)s1 [BAA-193]
< 50	50 to 1000	W (10-<100 fold)				Cc1cn(C2CN(C(=O)OC(C)(C)C)C2)nc1Nc1ncc(C(=O)Nc2c(C)ccc(O)c2C)s1 [BAA-272, tert-butyl 3-(3-((5-((3-hydroxy-2,6-dimethylphenyl)carbamoyl)thiazol-2-yl)amino)-4-methyl-1H-pyrazol-1-yl)azetidine-1-carboxylate]
1000 to 11000	> 11000	W (10-<100 fold)				Cc1nnc(Nc2ncc(C(=O)Nc3c(C)ccc(O)c3C)s2)o1 [BAA-258, N-(3-hydroxy-2,6-dimethylphenyl)-2-((5-methyl-1,3,4-oxadiazol-2-yl)amino)thiazole-5-carboxamide]
			50 to 1000	> 11000	X (100-<1000 fold)	Cc1ccc(O)c(C)c1NC(=O)c1cnc(Nc2cnn(CC(=O)N3CCCC3)c2C)s1 [BAA-556, N-(3-hydroxy-2,6-dimethylphenyl)-2-((5-methyl-1-(2-oxo-2-(pyrrolidin-1-yl)ethyl)-1H-pyrazol-4-yl)amino)thiazole-5-carboxamide]
50 to 1000	> 11000	>Y (1000-5000 fold)				Cc1ccc(O)c(C)c1NC(=O)c1cnc(Nc2ccn([C@@H]3CCN(C(=O)Cc4ccccc4)C3)n2)s1 [BAA-083]
			< 50	> 11000	Y (1000-5000 fold)	Cc1ccc(O)c(C)c1NC(=O)c1cnc(Nc2onc(C)c2C(N)=O)s1 [BAA-448, 5-((5-((3-hydroxy-2,6-dimethylphenyl)carbamoyl)thiazol-2-yl)amino)-3-methylisoxazole-4-carboxamide]
			< 50	1000 to 11000	X (100-<1000 fold)	COC1CCN(C(=O)Cn2cc(C)c(Nc3ncc(C(=O)Nc4c(C)ccc(O)c4C)s3)n2)C1 (stereo not drawn) [BAA-538, N-(3-hydroxy-2,6-dimethylphenyl)-2-((1-(2-(3-methoxypyrrolidin-1-yl)-2-oxoethyl)-4-methyl-1H-pyrazol-3-yl)amino)thiazole-5-carboxamide]
< 50	> 11000	X (100-<1000 fold)				Cc1ccc(O)c(C)c1NC(=O)c1cnc(Nc2cc3n(n2)CCN(C)C3=O)s1 [BAA-250, N-(3-hydroxy-2,6-dimethylphenyl)-2-((5-methyl-4-oxo-4,5,6,7-tetrahydropyrazolo[1,5-a]pyrazin-2-yl)amino)thiazole-5-carboxamide]
50 to 1000	> 11000	X (100-<1000 fold)				Cc1ccc(O)c(C)c1NC(=O)c1cnc(NCc2nccs2)s1 [BAA-358, N-(3-hydroxy-2,6-dimethylphenyl)-2-((thiazol-2-ylmethyl)amino)thiazole-5-carboxamide]
50 to 1000	1000 to 11000	W (10-<100 fold)				Cc1ccc(O)c(C)c1NC(=O)c1cnc(Nc2cc3ccc(O)cn3n2)s1 [BAA-343, N-(3-Hydroxy-2,6-dimethylphenyl)-2-((6-hydroxypyrazolo[1,5-a]pyridin-2-yl)amino)thiazole-5-carboxamide]
			< 50	> 11000	Y (1000-5000 fold)	Cc1cn(C)nc1Nc1nnc(C(=O)Nc2c(C)ccc(O)c2C)s1 [BAA-465, 5-((1,4-dimethyl-1H-pyrazol-3-yl)amino)-N-(3-hydroxy-2,6-dimethylphenyl)-1,3,4-thiadiazole-2-carboxamide]
50 to 1000	> 11000	X (100-<1000 fold)				Cc1ccc(O)c(C)c1NC(=O)c1cnc(Nc2cccc(C(=O)N3CC(F)(F)C(F)(F)C3)c2)s1 [BAA-261, N-(3-hydroxy-2,6-dimethylphenyl)-2-((3-(3,3,4,4-tetrafluoropyrrolidine-1-carbonyl)phenyl)amino)thiazole-5-carboxamide]
			50 to 1000	1000 to 11000	W (10-<100 fold)	Cc1c(O)cc(Br)c(C)c1NC(=O)c1cnc(Nc2cc(C)n(C3CCS(=O)(=O)C3)n2)s1 (stereo not drawn) [BAA-563, N-(3-Bromo-5-hydroxy-2,6-dimethyl-phenyl)-2-[[1-(1,1-dioxothiolan-3-yl)-5-methyl-pyrazol-3-yl]amino]thiazole-5-carboxamide]
			50 to 1000	> 11000	X (100-<1000 fold)	Cc1ccc(O)c(C)c1NC(=O)c1cnc(Nc2cc(Br)n(C)n2)s1 [BAA-494, 2-((5-Bromo-1-methyl-1H-pyrazol-3-yl)amino)-N-(3-hydroxy-2,6-dimethylphenyl)thiazole-5-carboxamide]
